We go through five compounds from ChEMBL document CHEMBL1129051, “9-Dihydroxy-2,3,7,11b-tetrahydro-1H-naph[1,2,3-de]isoquinoline: a potent full dopamine D1 agonist containing a rigid-beta-phenyldopamine pharmacophore” (J Med Chem, 1996).

Structures are written as SMILES.

The first assay deals with D(1A) dopamine receptor (Homo sapiens) (UniProt P21728). Nature of the assay: Hill slope was determined for the compound in D1 receptor binding assay.
D(1A) dopamine receptor (Homo sapiens), sequence (P21728 whole entry): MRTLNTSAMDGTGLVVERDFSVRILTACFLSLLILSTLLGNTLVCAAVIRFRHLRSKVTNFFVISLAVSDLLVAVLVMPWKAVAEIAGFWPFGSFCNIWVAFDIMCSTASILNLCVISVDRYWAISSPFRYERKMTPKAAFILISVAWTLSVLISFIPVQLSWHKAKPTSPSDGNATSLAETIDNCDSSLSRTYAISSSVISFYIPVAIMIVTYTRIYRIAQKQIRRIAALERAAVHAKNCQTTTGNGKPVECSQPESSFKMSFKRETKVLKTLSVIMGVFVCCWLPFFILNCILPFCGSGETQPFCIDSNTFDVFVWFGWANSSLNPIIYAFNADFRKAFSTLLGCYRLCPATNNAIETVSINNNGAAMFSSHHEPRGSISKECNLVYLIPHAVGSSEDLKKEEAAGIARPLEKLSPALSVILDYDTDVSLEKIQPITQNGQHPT
As for `Oc1cc2c(cc1O)[C@@H](c1ccccc1)CNCC2`, the nH was 0.75.
Same read-out and setting: to `Oc1ccc2c(c1O)Cc1cccc3c1[C@H]2CNC3` belongs 0.66; to `Oc1cc2c(cc1O)[C@H]1c3ccccc3CN[C@@H]1CC2`, 0.65; to `CN1CCc2cc(Cl)c(O)cc2[C@@H](c2ccccc2)C1`, 1.05.

For a further assay, the target named is D(2) dopamine receptor (Homo sapiens) (UniProt P14416).
D(2) dopamine receptor (Homo sapiens), sequence (P14416 whole entry): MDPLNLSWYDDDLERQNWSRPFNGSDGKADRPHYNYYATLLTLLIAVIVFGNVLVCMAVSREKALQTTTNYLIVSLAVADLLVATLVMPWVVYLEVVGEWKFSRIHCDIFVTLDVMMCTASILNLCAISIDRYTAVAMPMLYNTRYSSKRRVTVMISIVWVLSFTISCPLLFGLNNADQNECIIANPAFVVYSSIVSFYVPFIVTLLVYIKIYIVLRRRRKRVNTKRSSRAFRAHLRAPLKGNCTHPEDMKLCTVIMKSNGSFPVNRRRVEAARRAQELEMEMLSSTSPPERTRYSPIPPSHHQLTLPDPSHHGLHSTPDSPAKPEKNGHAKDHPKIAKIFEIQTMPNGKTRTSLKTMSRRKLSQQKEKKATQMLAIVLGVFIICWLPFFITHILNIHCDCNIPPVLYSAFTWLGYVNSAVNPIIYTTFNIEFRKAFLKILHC
Description: Hill slope was determined for the compound in D2 receptor binding assay
`CN(C)CCCN1c2ccccc2Sc2ccc(Cl)cc21` gave a nH of 0.93.
As for `Oc1cc2c(cc1O)[C@H]1c3ccccc3CN[C@@H]1CC2`, the nH stood at 0.72.
